{"source": "patent US10292412B2", "about": "“High solubility natural sweetener compositions” (KRAFT FOODS GLOBAL BRANDS LLC, priority 2012, dated 2019)", "key": {"[1]": {"assay": "Example 2: solubility of rebaudioside A in liquid concentrates with varying water, acid and alcohol", "format": "physicochemical", "design": "scale not given here", "experimental": "Liquid concentrate formulations were prepared including varying levels of rebaudioside A, water, alcohol, and acid. The solubility was measured at various concentrations of each of the components and the results are included in the tables below: […]"}, "[2]": {"assay": "Example 6: solubility rating of rebaudioside A liquid concentrate after 33 months at 35° F.", "format": "physicochemical", "details": "water 62.27%, Citric Acid 16.96%, Potassium Citrate 1.4%, Flavor (80%-90% Ethanol) 11%, Reb A 4.4%, Malic Acid 3.89%, Shade 0.08%", "experimental": "A liquid concentrate sample was prepared using rebaudioside A from Cargill. Samples were measured for solubility as defined in sections 46-47. The samples were rated as 3 on the scale after 33 months at 35° F. The formula is included in the table below: […]"}}, "note": "Where “and” joins values, the source holds several entries; their conditions need not be identical. Identical values can stand only once.", "data": [{"smiles": "C=C1C[C@@]23CC[C@H]4[C@@](C)(CCC[C@@]4(C)C(=O)O[C@@H]4O[C@H](CO)[C@@H](O)[C@H](O)[C@H]4O)[C@@H]2CC[C@]1(O[C@@H]1O[C@H](CO)[C@@H](O)[C@H](O[C@@H]2O[C@H](CO)[C@@H](O)[C@H](O)[C@H]2O)[C@H]1O[C@@H]1O[C@H](CO)[C@@H](O)[C@H](O)[C@H]1O)C3", "note": "[Reb A, rebaudioside A]", "values": [{"measurement": "Response 1 Solubility", "setting": "[1]; Water/Phosphoric Acid/Ethanol (190 Proof)/RebA 39.10/39.10/15.99/5.82 ml", "result": "Insoluble"}, {"measurement": "Response 1 Solubility", "setting": "[1]; Water/Phosphoric Acid/Ethanol (190 Proof)/RebA 47.96/0.00/47.96/4.08 ml", "result": 1}, {"measurement": "Response 1 Solubility", "setting": "[1]; Water/Phosphoric Acid/Ethanol (190 Proof)/RebA 47.96/47.96/0.00/4.08 ml", "result": "Insoluble"}, {"measurement": "Response 1 Solubility", "setting": "[1]; Water/Phosphoric Acid/Ethanol (190 Proof)/RebA 61.63/0.00/30.81/7.56 ml", "result": 4}, {"measurement": "Response 1 Solubility", "setting": "[1]; Water/Phosphoric Acid/Ethanol (190 Proof)/RebA 61.63/30.81/0.00/7.56 ml", "result": "Insoluble"}, {"measurement": "Response 1 Solubility", "setting": "[1]; Water/Phosphoric Acid/Ethanol (190 Proof)/RebA 62.21/15.99/15.99/5.82 ml", "result": 5}, {"measurement": "Response 1 Solubility", "setting": "[1]; Water/Phosphoric Acid/Ethanol (190 Proof)/RebA 66.26/0.00/33.13/0.60 ml", "result": 1}, {"measurement": "Response 1 Solubility", "setting": "[1]; Water/Phosphoric Acid/Ethanol (190 Proof)/RebA 92.44/0.00/0.00/7.56 ml", "result": 5}, {"measurement": "Response 1 Solubility", "setting": "[1]; Water/Phosphoric Acid/Ethanol (190 Proof)/RebA 99.40/0.00/0.00/0.60 ml", "result": "3 and 2"}, {"measurement": "Response 1 Solubility", "setting": "[1]; Water/Tartaric Acid/Ethanol (190 Proof)/RebA 18.70369333/21.97/51.77/7.56 ml", "result": 1}, {"measurement": "Response 1 Solubility", "setting": "[1]; Water/Tartaric Acid/Ethanol (190 Proof)/RebA 19.2674479/6.63/71.76/2.34 ml", "result": 2}, {"measurement": "Response 1 Solubility", "setting": "[1]; Water/Tartaric Acid/Ethanol (190 Proof)/RebA 19.2674479/14.30/62.35/4.08 ml", "result": 2}, {"measurement": "Response 1 Solubility", "setting": "[1]; Water/Tartaric Acid/Ethanol (190 Proof)/RebA 30.1664432/27.48/41.75/0.60 ml", "result": 1}, {"measurement": "Response 1 Solubility", "setting": "[1]; Water/Tartaric Acid/Ethanol (190 Proof)/RebA 30.81333333/4.93/56.70/7.56 ml", "result": 2}, {"measurement": "Response 1 Solubility", "setting": "[1]; Water/Tartaric Acid/Ethanol (190 Proof)/RebA 33.13173333/0.00/66.26/0.60 ml", "result": 1}, {"measurement": "Response 1 Solubility", "setting": "[1]; Water/Tartaric Acid/Ethanol (190 Proof)/RebA 33.2952179/19.41/41.47/5.82 ml", "result": 1}, {"measurement": "Response 1 Solubility", "setting": "[1]; Water/Tartaric Acid/Ethanol (190 Proof)/RebA 37.40738667/29.15/25.88/7.56 ml", "result": 1}, {"measurement": "Response 1 Solubility", "setting": "[1]; Water/Tartaric Acid/Ethanol (190 Proof)/RebA 39.9320216/13.74/45.72/0.60 ml", "result": 1}, {"measurement": "Response 1 Solubility", "setting": "[1]; Water/Tartaric Acid/Ethanol (190 Proof)/RebA 47.9588/0.00/47.96/4.08 ml", "result": 1}, {"measurement": "Response 1 Solubility", "setting": "[1]; Water/Tartaric Acid/Ethanol (190 Proof)/RebA 49.4338911/26.16/22.06/2.34 ml", "result": 1}, {"measurement": "Response 1 Solubility", "setting": "[1]; Water/Tartaric Acid/Ethanol (190 Proof)/RebA 49.51702667/12.11/30.81/7.56 ml", "result": 1}, {"measurement": "Response 1 Solubility", "setting": "[1]; Water/Tartaric Acid/Ethanol (190 Proof)/RebA 57.8023437/16.05/22.06/4.08 ml", "result": 1}, {"measurement": "Response 1 Solubility", "setting": "[1]; Water/Tartaric Acid/Ethanol (190 Proof)/RebA 60.3328864/39.06/0.00/0.60 ml", "result": 1}, {"measurement": "Response 1 Solubility", "setting": "[1]; Water/Tartaric Acid/Ethanol (190 Proof)/RebA 61.92/9.00/25.00/4.08 ml", "result": 2}, {"measurement": "Response 1 Solubility", "setting": "[1]; Water/Tartaric Acid/Ethanol (190 Proof)/RebA 65.18/8.00/21.00/5.82 ml", "result": 3}, {"measurement": "Response 1 Solubility", "setting": "[1]; Water/Tartaric Acid/Ethanol (190 Proof)/RebA 65.44/8.00/19.00/7.56 ml", "result": 4}, {"measurement": "Response 1 Solubility", "setting": "[1]; Water/Tartaric Acid/Ethanol (190 Proof)/RebA 65.4874479/6.63/22.06/5.82 ml", "result": 4}, {"measurement": "Response 1 Solubility", "setting": "[1]; Water/Tartaric Acid/Ethanol (190 Proof)/RebA 66.26346667/0.00/33.13/0.60 ml", "result": 1}, {"measurement": "Response 1 Solubility", "setting": "[1]; Water/Tartaric Acid/Ethanol (190 Proof)/RebA 68.22072/24.22/0.00/7.56 ml", "result": 2}, {"measurement": "Response 1 Solubility", "setting": "[1]; Water/Tartaric Acid/Ethanol (190 Proof)/RebA 71.18/16.00/7.00/5.82 ml", "result": 2}, {"measurement": "Response 1 Solubility", "setting": "[1]; Water/Tartaric Acid/Ethanol (190 Proof)/RebA 75.92/3.00/17.00/4.08 ml", "result": 4}, {"measurement": "Response 1 Solubility", "setting": "[1]; Water/Tartaric Acid/Ethanol (190 Proof)/RebA 75.92/12.00/8.00/4.08 ml", "result": 3}, {"measurement": "Response 1 Solubility", "setting": "[1]; Water/Tartaric Acid/Ethanol (190 Proof)/RebA 76.18/11.00/7.00/5.82 ml", "result": 4}, {"measurement": "Response 1 Solubility", "setting": "[1]; Water/Tartaric Acid/Ethanol (190 Proof)/RebA 77.0697916/18.85/0.00/4.08 ml", "result": 2}, {"measurement": "Response 1 Solubility", "setting": "[1]; Water/Tartaric Acid/Ethanol (190 Proof)/RebA 78.92/5.00/12.00/4.08 ml", "result": 4}, {"measurement": "Response 1 Solubility", "setting": "[1]; Water/Tartaric Acid/Ethanol (190 Proof)/RebA 84.92/3.00/8.00/4.08 ml", "result": 5}, {"measurement": "Response 1 Solubility", "setting": "[1]; Water/Tartaric Acid/Ethanol (190 Proof)/RebA 86.3744288/13.02/0.00/0.60 ml", "result": 1}, {"measurement": "Response 1 Solubility", "setting": "[1]; Water/Tartaric Acid/Ethanol (190 Proof)/RebA 92.44/0.00/0.00/7.56 ml", "result": 5}, {"measurement": "Response 1 Solubility", "setting": "[1]; Water/Tartaric Acid/Ethanol (190 Proof)/RebA 99.3952/0.00/0.00/0.60 ml", "result": 2}, {"measurement": "Response 1 Solubility", "setting": "[1]; Water/acid/alcohol/RebA 96.67/0.00/0.00/3.33 ml", "result": 5}, {"measurement": "Response 1 Solubility", "setting": "[1]; Water/acid/alcohol/RebA 97.01/0.00/0.00/2.99 ml", "result": 5}, {"measurement": "Response 1 Solubility", "setting": "[1]; Water/acid/alcohol/RebA 97.34/0.00/0.00/2.66 ml", "result": 5}, {"measurement": "Response 1 Solubility", "setting": "[1]; Water/acid/alcohol/RebA 97.67/0.00/0.00/2.33 ml", "result": 5}, {"measurement": "Response 1 Solubility", "setting": "[1]; Water/acid/alcohol/RebA 98.00/0.00/0.00/2.00 ml", "result": 5}, {"measurement": "Response 1 Solubility", "setting": "[1]; Water/acid/alcohol/RebA 98.34/0.00/0.00/1.66 ml", "result": 5}, {"measurement": "Response 1 Solubility", "setting": "[1]; Water/acid/alcohol/RebA 98.67/0.00/0.00/1.33 ml", "result": 5}, {"measurement": "Response 1 Solubility", "setting": "[1]; Water/acid/alcohol/RebA 99.00/0.00/0.00/1.00 ml", "result": 5}, {"measurement": "Response 1 Solubility", "setting": "[1]; Water/acid/alcohol/RebA 99.33/0.00/0.00/0.67 ml", "result": 2}, {"measurement": "Response 1 Solubility", "setting": "[1]; Water/acid/alcohol/RebA 99.67/0.00/0.00/0.33 ml", "result": 1}, {"measurement": "solubility rating on the scale", "setting": "[2]", "result": "3 (a solubility of 3 may be represented by 1% to 5% v/v of pellet)"}]}]}
